Values quoted from earlier work in patent US20250074868A1, “POLYHYDROXYLATED PHOTOINITIATORS” (Arkema France, priority 2021, published 2025).

water solubility: 0.5 wt %
SMILES: CC(C)(O)C(=O)c1ccc(OCCO)cc1 [SpeedCure 2959]
